Measurements taken from PubChem BioAssay (NCI).
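Compound exposure: 48 hours, 5 concentrations, 96-well plates. GI50 = concentration required for 50% inhibition of growth. TGI: total growth inhibition.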

Key:
Assay in all cases: inhibition of tumour cell growth, NCI panel, 48 h
KM12 colon = system: KM12 colon
HCC-2998 colon = system: HCC-2998 colon
OVCAR-8 ovarian = system: OVCAR-8 ovarian
786-0 renal = system: 786-0 renal
M14 melanoma = system: M14 melanoma
K-562 leukemia = system: K-562 leukemia
DMS 273 small cell lung = system: DMS 273 small cell lung
SN12C renal = system: SN12C renal
OVCAR-5 ovarian = system: OVCAR-5 ovarian
MOLT-4 leukemia = system: MOLT-4 leukemia
M19-MEL melanoma = system: M19-MEL melanoma
SR leukemia = system: SR leukemia
TK-10 renal = system: TK-10 renal
OVCAR-3 ovarian = system: OVCAR-3 ovarian
RXF 393 renal = system: RXF 393 renal
HCT-116 colon = system: HCT-116 colon
SF-268 CNS = system: SF-268 CNS
SNB-78 CNS = system: SNB-78 CNS
HCT-15 colon = system: HCT-15 colon
HOP-18 NSCLC = system: HOP-18 NSCLC
SK-MEL-2 melanoma = system: SK-MEL-2 melanoma
SNB-75 CNS = system: SNB-75 CNS
DMS 114 small cell lung = system: DMS 114 small cell lung
HOP-92 NSCLC = system: HOP-92 NSCLC
NCI-H226 lung = system: NCI-H226 lung
UO-31 renal = system: UO-31 renal
NCI-H522 lung = system: NCI-H522 lung
NCI-H23 lung = system: NCI-H23 lung
COLO 205 colon = system: COLO 205 colon
CAKI-1 renal = system: CAKI-1 renal
HL-60(TB) leukemia = system: HL-60(TB) leukemia
IGROV1 ovarian = system: IGROV1 ovarian
SNB-19 CNS = system: SNB-19 CNS
KM20L2 colon = system: KM20L2 colon
UACC-257 melanoma = system: UACC-257 melanoma
SF-295 CNS = system: SF-295 CNS
MALME-3M melanoma = system: MALME-3M melanoma
A498 renal = system: A498 renal
SK-MEL-28 melanoma = system: SK-MEL-28 melanoma
DLD-1 colon = system: DLD-1 colon
CCRF-CEM leukemia = system: CCRF-CEM leukemia
OVCAR-4 ovarian = system: OVCAR-4 ovarian
SK-OV-3 ovarian = system: SK-OV-3 ovarian
HT29 colon = system: HT29 colon
SF-539 CNS = system: SF-539 CNS
LOX IMVI melanoma = system: LOX IMVI melanoma
LXFL 529 NSCLC = system: LXFL 529 NSCLC
UACC-62 melanoma = system: UACC-62 melanoma
ACHN renal = system: ACHN renal
SW-620 colon = system: SW-620 colon
RXF-631 renal = system: RXF-631 renal
NCI-H460 lung = system: NCI-H460 lung
A549 NSCLC = system: A549 NSCLC
HOP-62 NSCLC = system: HOP-62 NSCLC
U251 CNS = system: U251 CNS
SK-MEL-5 melanoma = system: SK-MEL-5 melanoma
XF 498 CNS = system: XF 498 CNS
EKVX NSCLC = system: EKVX NSCLC

Work on `CCC[CH2][Sn]([CH2]CCC)([O]C(=O)c1cc(F)ccc1F)[O]C(=O)c1cc(F)ccc1F` yielded a GI50 (KM12 colon) of 1600 nM, a TGI (KM12 colon) of 3280 nM and a GI50 (HCC-2998 colon) of 1430 nM. It also gave a TGI (HCC-2998 colon) of 2760 nM, a GI50 (OVCAR-8 ovarian) of 1340 nM and a TGI (OVCAR-8 ovarian) of 2650 nM. The GI50 (786-0 renal) was 1150 nM, the TGI (786-0 renal) was 2370 nM and the GI50 (M14 melanoma) was 1470 nM. It also gave a TGI (M14 melanoma) of 2810 nM, a GI50 (K-562 leukemia) of 294 nM and a TGI (K-562 leukemia) of 1350 nM. It also gave a GI50 (DMS 273 small cell lung) of 1200 nM, a TGI (DMS 273 small cell lung) of 2450 nM and a GI50 (SN12C renal) of 1160 nM. For the same compound, the TGI (SN12C renal) was 2390 nM, the GI50 (OVCAR-5 ovarian) was 1910 nM and the TGI (OVCAR-5 ovarian) was 3310 nM. The GI50 (MOLT-4 leukemia) was 347 nM, the TGI (MOLT-4 leukemia) was 2010 nM and the GI50 (M19-MEL melanoma) was 537 nM. For the same compound, the TGI (M19-MEL melanoma) was 1800 nM, the GI50 (SR leukemia) was 502 nM and the TGI (SR leukemia) was 8740 nM. For the same compound, the GI50 (TK-10 renal) was 1640 nM, the TGI (TK-10 renal) was 3010 nM and the GI50 (OVCAR-3 ovarian) was 1330 nM. For the same compound, the TGI (OVCAR-3 ovarian) was 2610 nM, the GI50 (RXF 393 renal) was 326 nM and the TGI (RXF 393 renal) was 1120 nM. It also gave a GI50 (HCT-116 colon) of 1250 nM, a TGI (HCT-116 colon) of 2500 nM and a GI50 (SF-268 CNS) of 1140 nM. The TGI (SF-268 CNS) was 2370 nM, the GI50 (SNB-78 CNS) was 419 nM and the TGI (SNB-78 CNS) was 1860 nM. For the same compound, the GI50 (HCT-15 colon) was 1180 nM, the TGI (HCT-15 colon) was 2440 nM and the GI50 (HOP-18 NSCLC) was 2210 nM. The TGI (HOP-18 NSCLC) was 3670 nM, the GI50 (SK-MEL-2 melanoma) was 649 nM and the TGI (SK-MEL-2 melanoma) was 1870 nM. The GI50 (SNB-75 CNS) was 1130 nM, the TGI (SNB-75 CNS) was 2490 nM and the GI50 (DMS 114 small cell lung) was 372 nM. For the same compound, the TGI (DMS 114 small cell lung) was 1410 nM, the GI50 (HOP-92 NSCLC) was 1260 nM and the TGI (HOP-92 NSCLC) was 2520 nM. It also gave a GI50 (NCI-H226 lung) of 1560 nM, a TGI (NCI-H226 lung) of 2920 nM and a GI50 (UO-31 renal) of 1470 nM. The TGI (UO-31 renal) was 2790 nM, the GI50 (NCI-H522 lung) was 108 nM and the TGI (NCI-H522 lung) was 230 nM. The GI50 (NCI-H23 lung) was 731 nM, the TGI (NCI-H23 lung) was 2020 nM and the GI50 (COLO 205 colon) was 1120 nM. For the same compound, the TGI (COLO 205 colon) was 2320 nM, the GI50 (CAKI-1 renal) was 1060 nM and the TGI (CAKI-1 renal) was 2270 nM. It also gave a GI50 (HL-60(TB) leukemia) of 506 nM, a TGI (HL-60(TB) leukemia) of 3090 nM and a GI50 (IGROV1 ovarian) of 1630 nM. For the same compound, the TGI (IGROV1 ovarian) was 3180 nM, the GI50 (SNB-19 CNS) was 1560 nM and the TGI (SNB-19 CNS) was 2900 nM. The GI50 (KM20L2 colon) was 1760 nM, the TGI (KM20L2 colon) was 3370 nM and the GI50 (UACC-257 melanoma) was 1240 nM. The TGI (UACC-257 melanoma) was 2490 nM, the GI50 (SF-295 CNS) was 1770 nM and the TGI (SF-295 CNS) was 3170 nM. The GI50 (MALME-3M melanoma) was 703 nM, the TGI (MALME-3M melanoma) was 2100 nM and the GI50 (A498 renal) was 1250 nM. The TGI (A498 renal) was 2570 nM, the GI50 (SK-MEL-28 melanoma) was 1090 nM and the TGI (SK-MEL-28 melanoma) was 2320 nM. The GI50 (DLD-1 colon) was 915 nM, the TGI (DLD-1 colon) was 2160 nM and the GI50 (CCRF-CEM leukemia) was 257 nM. It also gave a TGI (CCRF-CEM leukemia) of 1250 nM, a GI50 (OVCAR-4 ovarian) of 1580 nM and a TGI (OVCAR-4 ovarian) of 2950 nM. For the same compound, the GI50 (SK-OV-3 ovarian) was 2790 nM, the TGI (SK-OV-3 ovarian) was 5640 nM and the GI50 (HT29 colon) was 1680 nM. The TGI (HT29 colon) was 3170 nM, the GI50 (SF-539 CNS) was 1400 nM and the TGI (SF-539 CNS) was 2810 nM. For the same compound, the GI50 (LOX IMVI melanoma) was 581 nM, the TGI (LOX IMVI melanoma) was 1850 nM and the GI50 (LXFL 529 NSCLC) was 176 nM. The TGI (LXFL 529 NSCLC) was 491 nM, the GI50 (UACC-62 melanoma) was 1360 nM and the TGI (UACC-62 melanoma) was 2650 nM. For the same compound, the GI50 (ACHN renal) was 1400 nM, the TGI (ACHN renal) was 2700 nM and the GI50 (SW-620 colon) was 619 nM. For the same compound, the TGI (SW-620 colon) was 1910 nM, the GI50 (RXF-631 renal) was 154 nM and the TGI (RXF-631 renal) was 363 nM. The GI50 (NCI-H460 lung) was 1850 nM, the TGI (NCI-H460 lung) was 3560 nM and the GI50 (A549 NSCLC) was 7720 nM. For the same compound, the TGI (A549 NSCLC) was 21000 nM, the GI50 (HOP-62 NSCLC) was 2390 nM and the TGI (HOP-62 NSCLC) was 4040 nM. For the same compound, the GI50 (U251 CNS) was 888 nM, the TGI (U251 CNS) was 2110 nM and the GI50 (SK-MEL-5 melanoma) was 1570 nM. It also gave a TGI (SK-MEL-5 melanoma) of 2910 nM, a GI50 (XF 498 CNS) of 1800 nM and a TGI (XF 498 CNS) of 3210 nM. It also gave a GI50 (EKVX NSCLC) of 1260 nM and a TGI (EKVX NSCLC) of 2510 nM.
